# In patent publication US20160304461A1, “QUINOLONE COMPOUND AND PHARMACEUTICAL COMPOSITION” (OTSUKA PHARMACEUTICAL CO., LTD., priority 2007, published 2016):
row,melting point,SMILES
1,228 to 230 °C,"CCCOc1ccc(F)c2c(=O)c(-c3ccc(Oc4ccccc4)cc3)c[nH]c12 [Example 52, 5-Fluoro-3-(4-phenoxyphenyl)-8-propoxy-1H-quinolin-4-one]"
2,180 to 181 °C,"CCCOc1ccc(F)c2c(=O)c(-c3ccc(C(C)=O)cc3)c[nH]c12 [Example 54, 3-(4-Acetylphenyl)-5-fluoro-8-propoxy-1H-quinolin-4-one]"
3,201 to 202 °C,"CCCOc1ccc(F)c2c(=O)c(-c3ccc(C(=O)OC)cc3)c[nH]c12 [Example 55, Methyl 4-(5-fluoro-4-oxo-8-propoxy-1,4-dihydroquinolin-3-yl)benzoate]"
4,236 to 237 °C,"CCCOc1ccc(F)c2c(=O)c(-c3ccc(C(=O)N4CCCC4)cc3)c[nH]c12 [Example 56, 5-Fluoro-8-propoxy-3-[4-(pyrrolidine-1-carbonyl)phenyl]-1H-quinolin-4-one]"
5,235 to 237 °C,"CCCOc1ccc(F)c2c(=O)c(-c3ccc(C(=O)N(C)C)cc3)c[nH]c12 [Example 57, 4-(5-Fluoro-4-oxo-8-propoxy-1,4-dihydroquinolin-3-yl)-N,N-dimethylbenzamide]"
6,210 to 212 °C,"CCCOc1ccc(F)c2c(=O)c(-c3ccco3)c[nH]c12 [Example 58, 5-Fluoro-3-furan-2-yl-8-propoxy-1H-quinolin-4-one]"
7,190 to 191 °C,"CCCOc1ccc(F)c2c(=O)c(-c3ccsc3C=O)c[nH]c12 [Example 60, 3-(5-Fluoro-4-oxo-8-propoxy-1,4-dihydroquinolin-3-yl)thiophene-2-carbaldehyde]"
8,156 to 157 °C,"CCCOc1ccc(F)c2c(=O)c(-c3cc(OC)ccc3OC)c[nH]c12 [Example 65, 3-(2,5-Dimethoxyphenyl)-5-fluoro-8-propoxy-1H-quinolin-4-one]"
9,211 to 212 °C,"CCCOc1ccc(F)c2c(=O)c(-c3ccc(OC)cc3)c(C)[nH]c12 [Example 67, 5-Fluoro-3-(4-methoxyphenyl)-2-methyl-8-propoxy-1H-quinolin-4-one]"
10,190 to 192 °C,"CCCOc1ccc(F)c2c(=O)c(-c3cccnc3)c(C)[nH]c12 [Example 68, 5-Fluoro-2-methyl-8-propoxy-3-pyridin-3-yl-1H-quinolin-4-one]"
11,265 to 266 °C,"CCCOc1ccc(F)c2c(=O)c(-c3ccncc3)c(C)[nH]c12 [Example 69, 5-Fluoro-2-methyl-8-propoxy-3-pyridin-4-yl-1H-quinolin-4-one]"
12,233 to 234 °C,"CCCOc1ccc(F)c2c(=O)c(-c3cccs3)c(C)[nH]c12 [Example 72, 5-Fluoro-2-methyl-8-propoxy-3-thiophen-2-yl-1H-quinolin-4-one]"
13,255 to 257 °C,"CCCOc1ccc(F)c2c(=O)c(-c3ccc(N(C)C)cc3)c(C)[nH]c12 [Example 73, 3-(4-Dimethylaminophenyl)-5-fluoro-2-methyl-8-propoxy-1H-quinolin-4-one]"
14,196 to 197 °C,"CCCOc1ccc(F)c2c(=O)c(-c3ccc(F)cc3)c(C)[nH]c12 [Example 74, 5-Fluoro-3-(4-fluorophenyl)-2-methyl-8-propoxy-1H-quinolin-4-one]"
15,100 to 101 °C,"CCCOc1ccc(F)c2c(=O)c(-c3ccc(OC)cc3OC)c(C)[nH]c12 [Example 75, 3-(2,4-Dimethoxyphenyl)-5-fluoro-2-methyl-8-propoxy-1H-quinolin-4-one]"

# The next lines start with the compound.
row,SMILES,melting point
1,"CCCOc1ccc(F)c2c(=O)c(-c3ccc(OC)c(F)c3)c[nH]c12 [Example 2, 5-Fluoro-3-(3-fluoro-4-methoxyphenyl)-8-propoxy-1H-quinolin-4-one]",194 to 195 °C
2,"CCCOc1ccc(F)c2c(=O)c(-c3ccc(OC(F)(F)F)cc3)c[nH]c12 [Example 5, 5-Fluoro-8-propoxy-3-(4-trifluoromethoxyphenyl)-1H-quinolin-4-one]",212 to 214 °C
3,"CCCOc1ccc(F)c2c(=O)c(-c3ccccc3OC)c[nH]c12 [Example 7, 5-Fluoro-3-(2-methoxyphenyl)-8-propoxy-1H-quinolin-4-one]",193 to 195 °C
4,"CCCOc1ccc(F)c2c(=O)c(-c3ccc(OC)cc3OC)c[nH]c12 [Example 8, 3-(2,4-Dimethoxyphenyl)-5-fluoro-8-propoxy-1H-quinolin-4-one]",116 to 118 °C
5,"COc1ccc(-c2c[nH]c3c(OC(C)C)ccc(F)c3c2=O)cc1 [Example 9, 5-Fluoro-8-isopropoxy-3-(4-methoxyphenyl)-1H-quinolin-4-one]",193 to 194 °C
6,"CCCOc1ccc(F)c2c(=O)c(-c3ccc(Cl)cc3Cl)c[nH]c12 [Example 10, 3-(2,4-Dichlorophenyl)-5-fluoro-8-propoxy-1H-quinolin-4-one]",256 to 259 °C
7,"CCOc1ccc(F)c2c(=O)c(-c3ccc(OC)cc3)c[nH]c12 [Example 11, 8-Ethoxy-5-fluoro-3-(4-methoxyphenyl)-1H-quinolin-4-one]",155 to 156 °C
8,"CCOc1ccc(F)c2c(=O)c(-c3ccc(OC)cc3OC)c[nH]c12 [Example 12, 3-(2,4-Dimethoxyphenyl)-8-ethoxy-5-fluoro-1H-quinolin-4-one]",154 to 155 °C
9,"CCOc1ccc(F)c2c(=O)c(-c3ccc(Cl)cc3Cl)c[nH]c12 [Example 13, 3-(2,4-Dichlorophenyl)-8-ethoxy-5-fluoro-1H-quinolin-4-one]",236 to 237 °C
10,"COc1ccc(-c2c[nH]c3c(N4CCOCC4)ccc(F)c3c2=O)cc1 [Example 14, 5-Fluoro-3-(4-methoxyphenyl)-8-morpholin-4-yl-1H-quinolin-4-one]",249 to 251 °C
11,"CCCOc1ccc(F)c2c(=O)c(-c3ccc(OC)cc3OC(C)C)c[nH]c12 [Example 15, 5-Fluoro-3-(2-isopropoxy-4-methoxyphenyl)-8-propoxy-1H-quinolin-4-one]",204 to 206 °C
12,"CCCOc1ccc(F)c2c(=O)c(-c3ccc(OC)cc3C)c[nH]c12 [Example 16, 5-Fluoro-3-(4-methoxy-2-methylphenyl)-8-propoxy-1H-quinolin-4-one]",197 to 199 °C
13,"CCCOc1ccc(F)c2c(=O)c(-c3ccc(OC)cc3F)c[nH]c12 [Example 17, 5-Fluoro-3-(2-fluoro-4-methoxyphenyl)-8-propoxy-1H-quinolin-4-one]",230 to 232 °C
14,"COc1ccc(-c2c[nH]c3c(N4CCCC4)ccc(F)c3c2=O)cc1 [Example 18, 5-Fluoro-3-(4-methoxyphenyl)-8-pyrrolidin-1-yl-1H-quinolin-4-one]",100 to 105 °C
15,"CCCOc1ccc(F)c2c(=O)c(-c3ccc(OCC)cc3OC)c[nH]c12 [Example 19, 3-(4-Ethoxy-2-methoxyphenyl)-5-fluoro-8-propoxy-1H-quinolin-4-one]",118 to 120 °C
16,"CCCOc1ccc(F)c2c(=O)c(-c3ccc(OC(C)C)cc3OC)c[nH]c12 [Example 20, 5-Fluoro-3-(4-isopropoxy-2-methoxyphenyl)-8-propoxy-1H-quinolin-4-one]",113 to 115 °C
17,"COc1ccc(-c2c[nH]c3c(Br)ccc(F)c3c2=O)cc1 [Example 22, 8-Bromo-5-fluoro-3-(4-methoxyphenyl)-1H-quinolin-4-one]",134 to 135 °C
18,"COc1ccc(-c2c[nH]c3c(C(=O)N4CCCC4)ccc(F)c3c2=O)cc1 [Example 23, 5-Fluoro-3-(4-methoxyphenyl)-8-(pyrrolidin-1-carbonyl)-1H-quinolin-4-one]",236 to 237 °C
19,"COc1ccc(-c2c[nH]c3c(OCCCNC(C)=O)ccc(F)c3c2=O)cc1 [Example 26, N-{3-[5-Fluoro-3-(4-methoxyphenyl)-4-oxo-1,4-dihydroquinolin-8-yloxy]propyl}acetamide]",229 to 231 °C
20,"COc1ccc(-c2c[nH]c3c(OCCCNS(C)(=O)=O)ccc(F)c3c2=O)cc1 [Example 27, N-{3-[5-Fluoro-3-(4-methoxyphenyl)-4-oxo-1,4-dihydroquinolin-8-yloxy]propyl}methanesulfonamide]",120 to 121 °C
21,"COc1ccc(-c2c[nH]c3c(N(C)CC(C)C)ccc(F)c3c2=O)cc1 [Example 28, 5-Fluoro-8-(N-isobutyl-N-methylamino)-3-(4-methoxyphenyl)-1H-quinolin-4-one]",144 to 145 °C
22,"COc1ccc(-c2c[nH]c3c(N(C)C(C)C)ccc(F)c3c2=O)cc1 [Example 29, 5-Fluoro-8-(N-isopropyl-N-methylamino)-3-(4-methoxyphenyl)-1H-quinolin-4-one]",267 to 269 °C
23,"CCCOc1ccc(F)c2c(=O)c(-c3ccc(OCC)cc3)c[nH]c12 [Example 33, 3-(4-Ethoxyphenyl)-5-fluoro-8-propoxy-1H-quinolin-4-one]",203 to 205 °C
24,"COc1ccc(-c2c[nH]c3c(OCC4CCCO4)ccc(F)c3c2=O)cc1 (stereo not drawn) [Example 39, 5-Fluoro-3-(4-methoxyphenyl)-8-(tetrahydrofuran-2-ylmethoxy)-1H-quinolin-4-one]",108 to 110 °C
25,"COc1ccc(-c2c[nH]c3c(OCC4CCC4)ccc(F)c3c2=O)cc1 [Example 41, 8-Cyclobutylmethoxy-5-fluoro-3-(4-methoxyphenyl)-1H-quinolin-4-one]",193 to 194 °C
26,"COc1ccc(-c2c[nH]c3c(OC(C)(C)C)ccc(F)c3c2=O)cc1 [Example 42, 8-tert-Butoxy-5-fluoro-3-(4-methoxyphenyl)-1H-quinolin-4-one]",206 to 208 °C
27,"CCCOc1ccc(F)c2c(=O)c(-c3ccc(OC)cc3)c(CC)[nH]c12 [Example 48, 2-Ethyl-5-fluoro-3-(4-methoxyphenyl)-8-propoxy-1H-quinolin-4-one]",169 to 171 °C
28,"CCCOc1ccc(F)c2c(=O)c(-c3cccnc3)c[nH]c12 [Example 49, 5-Fluoro-8-propoxy-3-pyridin-3-yl-1H-quinolin-4-one]",234 to 236 °C
29,"CCCOc1ccc(F)c2c(=O)c(-c3ccc(OCC)c(F)c3)c[nH]c12 [Example 50, 3-(4-Ethoxy-3-fluorophenyl)-5-fluoro-8-propoxy-1H-quinolin-4-one]",176 to 177 °C
30,"CCCOc1ccc(F)c2c(=O)c(-c3ccncc3)c[nH]c12 [Example 51, 5-Fluoro-8-propoxy-3-pyridin-4-yl-1H-quinolin-4-one]",259 to 261 °C
